Source: publication PMC13114161 (Antibiotics, 2026)
Values after ≈ are worked out from the molar mass of the structure shown. Like-named read-outs stand apart in the source and are kept apart here.

Assays:
[1] = test system: multidrug-resistant P. aeruginosa clinical isolates from Walter Reed Army Hospital; assay: Levofloxacin MIC potentiation, WRAIR MRSN isolates; assay type: cell-based, Pseudomonas aeruginosa; conditions: for MIC: Pseudomonas aeruginosa
Method: (§1) MIC assays for potentiation of antimicrobial activity against P. aeruginosa were performed as described previously.

P. aeruginosa = assay: Effect of inoculum on levofloxacin potentiation (MIC); assay type: cell-based, Pseudomonas aeruginosa
Method: as §1

P. aeruginosa ATCC 27853 = assay: Neutropenic murine lung infection model; assay type: in vivo, CD-1 mice; conditions: for Mean Log10 CFU (lung): +24 hr
Method: For the lung infection model, mice were anesthetized by IP injection of 0.15 mL of a ketamine (40 mg/kg) + xylazine (6 mg/kg) mixture and inoculated intranasally (IN) with 0.05 mL of a 4 × 10^8 CFU/mL bacterial suspension applied dropwise to the external nares. Two hours post-infection, mice received test articles IV (EPIs) or SC (levofloxacin). At 2 h or 24 h post-infection, mice were euthanized by CO2 asphyxiation, and lungs were aseptically removed, placed in 2 mL sterile PBS, and homogenized using the same procedure described above. Homogenates were serially diluted and plated (8 µL spots) onto BHI-charcoal and citrate agar, incubated overnight at 37 °C, and colonies were counted the following day.

Aqueous solubility = assay type: physicochemical; conditions: for solubility at 6 h: system solution (SS), pH 7.4, aqueous buffer, kinetic from dmso stock
Method: The aqueous solubility of TXA11114 was evaluated in system solution (SS) at pH 7.4. Known concentrations of TXA11114, prepared as DMSO stock solutions, were spiked into SS and incubated for 6 h at room temperature with constant shaking (250 rpm). Caffeine and diethylstilbestrol (DES) were used as positive controls. […] Aliquots (500 µL) of diluted test and control compounds were dispensed into 96-deep-well plates in triplicate, sealed, and incubated as described above. Following incubation, 300 µL samples were withdrawn and filtered using 0.22 µm filter plates. Optical density at λ_max was measured using a UV spectrophotometer.

in vivo = conditions: female, CD-1, mouse, iv
Method: Thus, the safety and tolerability of TXA11114 was determined to find an optimum dosing capability. The maximum tolerated dose (MTD) of TXA11114 was assessed in female mice (CD-1, 6–8 weeks old) at the University of North Texas Health Science Center (UNTHSC). TXA11114 was administered IV to groups of three female mice. Mice were administered TXA11114 in the range 30–240 mg/kg (IV bolus). […] As doses are tolerated (not resulting in effects such as mortality, convulsions, or other severe morbidity), they are increased. Survival and general observations as to the tolerability of the administered dose started immediately and continued for a period of 48 h after each dose was recorded.

[2] = levofloxacin 15 mg/kg SC QID, alone or with TXA11114 30 mg/kg IV QID
[3] = levofloxacin 30 mg/kg SC QID, alone or with TXA11114 30 mg/kg IV QID

C[C@H]1COc2c(N3CCN(C)CC3)c(F)cc3c(=O)c(C(=O)O)cn1c23 [Levofloxacin, levofloxacin]
MIC ([1]; read-out: Levofloxacin MIC alone across panel, 20 MRSN isolates): ≥ 8 µg/mL | MIC ([1]; read-out: Levofloxacin MIC, No EPI, MRSN #994): 16 µg/mL | MIC ([1]; read-out: Levofloxacin MIC, No EPI, MRSN #1344): 8 µg/mL | MIC ([1]; read-out: Levofloxacin MIC, No EPI, MRSN #3587): 8 µg/mL | MIC ([1]; read-out: Levofloxacin MIC, No EPI, MRSN #3705): 8 µg/mL | MIC ([1]; read-out: Levofloxacin MIC, No EPI, MRSN #5498): 32 µg/mL | MIC ([1]; read-out: Levofloxacin MIC, No EPI, MRSN #5519): 64 µg/mL | MIC ([1]; read-out: Levofloxacin MIC, No EPI, MRSN #5539): 16 µg/mL | MIC ([1]; read-out: Levofloxacin MIC, No EPI, MRSN #6220): 128 µg/mL | MIC ([1]; read-out: Levofloxacin MIC, No EPI, MRSN #6241): 8 µg/mL | MIC ([1]; read-out: Levofloxacin MIC, No EPI, MRSN #6678): 32 µg/mL | MIC ([1]; read-out: Levofloxacin MIC, No EPI, MRSN # 6695): 8 µg/mL | MIC ([1]; read-out: Levofloxacin MIC, No EPI, MRSN #8130): 16 µg/mL | MIC ([1]; read-out: Levofloxacin MIC, No EPI, MRSN #8139): 8 µg/mL | MIC ([1]; read-out: Levofloxacin MIC, No EPI, MRSN #8912): 16 µg/mL | MIC ([1]; read-out: Levofloxacin MIC, No EPI, MRSN #8914): 16 µg/mL | MIC ([1]; read-out: Levofloxacin MIC, No EPI, MRSN #8915): 128 µg/mL | MIC ([1]; read-out: Levofloxacin MIC, No EPI, MRSN #14981): 16 µg/mL | MIC ([1]; read-out: Levofloxacin MIC, No EPI, MRSN #15566): 8 µg/mL | MIC ([1]; read-out: Levofloxacin MIC, No EPI, MRSN #16344): 8 µg/mL | MIC ([1]; read-out: Levofloxacin MIC, No EPI, MRSN #369569): 32 µg/mL | LVX MIC (P. aeruginosa; OD600 0.001, TXA11114 0 μg/mL): 1 µg/mL | LVX MIC (P. aeruginosa; OD600 0.025, TXA11114 0 μg/mL): 2 µg/mL | Mean Log10 CFU (lung) (P. aeruginosa ATCC 27853; [2]): 5.86 log10 CFU | Mean Log10 CFU (lung) (P. aeruginosa ATCC 27853; [3]): 3.98 log10 CFU | Mean Log10 CFU Change vs +2 hr Control, Δlog10 (treatment-baseline), lung (P. aeruginosa ATCC 27853; [2]): 1.27 log10 CFU | Mean Log10 CFU Change vs +24 hr Control, lung (P. aeruginosa ATCC 27853; [2]): 3.03 log10 CFU | Reduction of lung CFU at 24 h post-infection (P. aeruginosa ATCC 27853; [3]): 0.61 log10 CFU

NC[C@@H]1CN[C@H](CNC(=O)c2cc3ccc(-c4ccc(F)cc4)cc3[nH]2)C1 [TXA09155]
solubility at 6 h (Aqueous solubility): 155 ± 3 µM (≈ 56.8 µg/mL) | MTD at 48 h (in vivo): 30 mg/kg

NCC(F)C[C@@H](N)CNC(=O)c1cc2ccc(-c3ccc(F)cc3)cc2[nH]1 (stereo partly drawn) [TXA11114, N-((2R)-2,5-diamino-4-fluoropentyl)-6-(4-fluorophenyl)-1H-indole-2-carboxamide]
Levofloxacin MIC reductions across panel ([1]; 20 MRSN isolates, + TXA11114 […]): 2- to 32 fold | Share of isolates shifted to levofloxacin susceptibility ([1]; 20 highly MDR MRSN isolates, + TXA11114): 65% | Levofloxacin MIC fold difference, +TXA11114 ([1]; MRSN #994): 8 fold | Levofloxacin MIC, +TXA11114 ([1]; MRSN #994): 2 µg/mL | Levofloxacin MIC, +TXA11114 ([1]; MRSN #1344): 0.25 µg/mL | Levofloxacin MIC fold difference, +TXA11114 ([1]; MRSN #3587): 8 fold | Levofloxacin MIC, +TXA11114 ([1]; MRSN #3587): 1 µg/mL | Levofloxacin MIC fold difference, +TXA11114 ([1]; MRSN #3705): 32 fold | Levofloxacin MIC, +TXA11114 ([1]; MRSN #3705): 0.25 µg/mL | Levofloxacin MIC fold difference, +TXA11114 ([1]; MRSN #5498): 8 fold | Levofloxacin MIC, +TXA11114 ([1]; MRSN #5498): 4 µg/mL | Levofloxacin MIC fold difference, +TXA11114 ([1]; MRSN #5519): 16 fold | Levofloxacin MIC, +TXA11114 ([1]; MRSN #5519): 4 µg/mL | Levofloxacin MIC fold difference, +TXA11114 ([1]; MRSN #5539): 2 fold | Levofloxacin MIC, +TXA11114 ([1]; MRSN #5539): 8 µg/mL | Levofloxacin MIC fold difference, +TXA11114 ([1]; MRSN #6220): 16 fold | Levofloxacin MIC, +TXA11114 ([1]; MRSN #6220): 8 µg/mL | Levofloxacin MIC fold difference, +TXA11114 ([1]; MRSN #6241): 4 fold | Levofloxacin MIC, +TXA11114 ([1]; MRSN #6241): 2 µg/mL | Levofloxacin MIC fold difference, +TXA11114 ([1]; MRSN #6678): 8 fold | Levofloxacin MIC, +TXA11114 ([1]; MRSN #6678): 4 µg/mL | Levofloxacin MIC fold difference, +TXA11114 ([1]; MRSN # 6695): 16 fold | Levofloxacin MIC, +TXA11114 ([1]; MRSN # 6695): 0.5 µg/mL | Levofloxacin MIC fold difference, +TXA11114 ([1]; MRSN #8130): 8 fold | Levofloxacin MIC, +TXA11114 ([1]; MRSN #8130): 2 µg/mL | Levofloxacin MIC fold difference, +TXA11114 ([1]; MRSN #8139): 8 fold | Levofloxacin MIC, +TXA11114 ([1]; MRSN #8139): 1 µg/mL | Levofloxacin MIC fold difference, +TXA11114 ([1]; MRSN #8912): 8 fold | Levofloxacin MIC, +TXA11114 ([1]; MRSN #8912): 2 µg/mL | Levofloxacin MIC fold difference, +TXA11114 ([1]; MRSN #8914): 8 fold | Levofloxacin MIC, +TXA11114 ([1]; MRSN #8914): 2 µg/mL | Levofloxacin MIC fold difference, +TXA11114 ([1]; MRSN #8915): 2 fold | Levofloxacin MIC, +TXA11114 ([1]; MRSN #8915): 64 µg/mL | Levofloxacin MIC fold difference, +TXA11114 ([1]; MRSN #14981): 16 fold | Levofloxacin MIC, +TXA11114 ([1]; MRSN #14981): 1 µg/mL | Levofloxacin MIC fold difference, +TXA11114 ([1]; MRSN #15566): 32 fold | Levofloxacin MIC, +TXA11114 ([1]; MRSN #15566): 0.25 µg/mL | Levofloxacin MIC fold difference, +TXA11114 ([1]; MRSN #16344): 16 fold | Levofloxacin MIC, +TXA11114 ([1]; MRSN #16344): 0.5 µg/mL | Levofloxacin MIC fold difference, +TXA11114 ([1]; MRSN #369569): 8 fold | Levofloxacin MIC, +TXA11114 ([1]; MRSN #369569): 4 µg/mL | LVX MIC (P. aeruginosa; OD600 0.001, TXA11114 25 μg/mL): 0.031 µg/mL | LVX MIC fold difference (P. aeruginosa; OD600 0.001, TXA11114 25 μg/mL): 32 fold | LVX MIC (P. aeruginosa; OD600 0.001, TXA11114 50 μg/mL): 0.008 µg/mL | LVX MIC fold difference (P. aeruginosa; OD600 0.001, TXA11114 50 μg/mL): 128 fold | LVX MIC (P. aeruginosa; OD600 0.025, TXA11114 25 μg/mL): 0.063 µg/mL | LVX MIC fold difference (P. aeruginosa; OD600 0.025, TXA11114 25 μg/mL): 32 fold | LVX MIC (P. aeruginosa; OD600 0.025, TXA11114 50 μg/mL): 0.031 µg/mL | LVX MIC fold difference (P. aeruginosa; OD600 0.025, TXA11114 50 μg/mL): 64 fold | Minimal potentiation concentration (MPC) (P. aeruginosa; standard broth microdilution inoculum): 6.25 µg/mL | Effect of EPI alone on bacterial burden, lung (P. aeruginosa ATCC 27853; 30 mg/kg, IV, QID): did not reduce bacterial burden | Mean Log10 CFU (lung) (P. aeruginosa ATCC 27853; TXA11114 30 mg/kg IV QID alone): 8.75 log10 CFU | Mean Log10 CFU Change vs +2 hr Control, Δlog10 (treatment-baseline), lung (P. aeruginosa ATCC 27853; TXA11114 30 mg/kg IV QID alone): 4.16 log10 CFU | Aqueous solubility (Aqueous solubility; pH 7.4): 145.9 ± 6.1 µM | solubility at 6 h (Aqueous solubility): > 145 µM | MTD at 48 h (in vivo; in vivo, Maximum tolerated dose (MTD), mice, IV bolus for TXA11114): < 90 mg/kg | MTD at 48 h (in vivo): > 60 mg/kg
